According to patent publication US20220184073A1, “USE OF A H3R INVERSE AGONIST FOR THE TREATMENT OF SHIFT WORK DISORDER” (Novartis AG, priority 2017, published 2022):
“Also recorded” adds a separate entry of the source.

Legend:
[1] = test system: histamine in CSF; assay: Histamine (HA) in CSF after single oral dose in healthy volunteers (LC-MS); type: in vivo, human; conditions: for model adjusted geometric mean ratio to baseline of histamine in CSF: 100 mg single oral dose (free form); for Comparison of treatment vs placebo, Estimate (geometric ratio), histamine in CSF: 100 mg single oral dose vs placebo
Protocol: (§1) A randomized, double-blind, placebo-controlled, parallel group, exploratory study of single oral doses of Compound (I) (free form) was conducted in healthy volunteers (HVs) to investigate the pharmacodynamic effect of Compound (I) on the release of neurotransmitters in the brain. A total of 16 subjects were enrolled into the study, which was part of a first-in-human (FIH) study.
(§2) Subjects were randomized in a 1:1 ratio to receive either a single dose of Compound (I) or placebo.
(§3) On study Day 1 in the afternoon (approximately at 16:00), the HVs underwent lumbar puncture and a spinal catheter was placed for repeated cerebrospinal fluid (CSF) sampling. The spinal catheter was placed under strict surgical aseptic conditions, as per best practice standards, by a board certified anesthesiologist. Two CSF samples were collected before administration of the study drug (Compound (I) or placebo). Study drug was administered in the evening (approximately at 18:00). Thereafter, 10 more CSF samples were collected during 16 hrs following drug administration. The exact timing of sampling (0.5, 1, 1.5, 2, 3, 4, 6, 8, 12 and 16 hr post dose). During the same period, blood samples were also collected for pharmacokinetic (PK) analysis. The subjects remained at bed rest during the CSF sampling procedure and for about 24 hr afterwards. The following safety precautions were taken: (1) proper hydration of the subjects was ensured; (2) the catheter insertion site was assessed on a regular basis for early signs of local infection or CSF leakage; (3) prophylactic interventions/treatments to reduce the risk of venous thrombosis was considered by the Investigator.
(§4) The dose of Compound (I) (free form) administered to the subjects was 100 mg. Safety, tolerability and PK assessments were made up to 72 hr post dose. Subjects were allowed to leave the study center on Study Day 4 at the discretion of the Investigator, if there were no prohibitive safety findings. The subjects were asked to return to the study site for the study completion evaluation. Safety assessments included physical examinations, electrocardiograms (ECGs), vital signs, standard clinical laboratory evaluations (hematology, blood chemistry, and urinalysis), adverse events (AEs) and serious adverse events (SAEs) monitoring.
(§5) Biomarkers related to pharmacodynamic (PD) effect of Compound (I) (e.g. histamine [HA], tele-methylhistamine [tMeHA]) were measured in the CSF using LC-MS method.
LC-MS conditions for histamine (%=percent by volume): Acquity Binary Solvent Manager/Applied Biosystems API 5000; Mobile Phase A: acetonitrile, B: 10 mM ammonium formate pH3; Gradient: 10%A for 0.25 min, increase to 15%A within 0.25 min, increase to 25%A within 4 min, increase to 90%A within 0.10 min, 90%A for 0.9 min, back to 10%A within 0.10 min, 10%A for 2.40 min; Run time: 8 min; Flow rate: 0.35 mL/min; Analytical column: Acquity BEH C18, 150×2.1 mm, 1.7 μm; Temperature: 30° C. The desired compound histamine LC-MS: Rt=3.85 min, m/z 246 (M+H)^+
The effect of Compound (I) on CSF biomarkers was assessed using mixed models for repeated measures (MMRM). These parameters were log transformed and analyzed using a model including treatment and timepoint, the treatment*timepoint interaction term, and log transformed baseline as fixed effects. An unstructured residual covariance matrix within subjects was considered as desirable, but an alternative covariance structure (autoregressive) was used due to a lack of fit. The mean difference versus placebo (and its 90% CI) was calculated at each dose level. These were back-transformed to give a geometric ratio (and its 90% CI) between each dose and placebo.
Subjects: The study population comprised of male and female (of non-child bearing potential) healthy volunteers (HVs) 18-55 years of age. […] BMI=Body weight (kg)/[Height (m)]2. Subjects were able to communicate well with the Investigator, to understand and comply with the requirements of the study. […]

[2] = test system: tele-methylhistamine in CSF; assay: tele-methylhistamine (tMeHA) in CSF after single oral dose in healthy volunteers (LC-MS); type: in vivo, human; conditions: for model adjusted geometric mean ratio to baseline of tele-methylhistamine in CSF: 100 mg single oral dose (free form); for Comparison of treatment vs placebo, Estimate (geometric ratio), tele-methylhistamine in CSF: 100 mg single oral dose vs placebo
Protocol: as §1, §2, §3, §4, §5
LC-MS conditions for tele-methyl-histamine (%=percent by volume): Acquity Binary Solvent Manager/Applied Biosystems API 5000; Mobile Phase A: acetonitrile, B: 10 mM ammonium formate pH9; Gradient: 15%A for 0.25 min, increase to 25%A within 4.75 min, increase to 90%A within 0.10 min, 90%A for 0.50 min, back to 15%A within 0.10 min, 15%A for 0.60 min; Run time: 6.3 min; Flow rate: 0.65 mL/min; Analytical column: Acquity BEH C18, 150×2.1 mm, 1.7 μm; Temperature: 70° C. The desired compound tele-methyl-histamine LC-MS: Rt=4.66 min, m/z 260 (M+H)^+
Compound (I) can induce histamine release in a subject and thereby promote wakefulness. The tMeHA is the direct breakdown product of HA and can thus be used as a marker for HA release. In animals, the half-life of HA is about 20 minutes. Therefore HA is not an ideal mechanistic PD marker for Compound (I). due to its short half-life. […] Due to its slower breakdown, tMeHA was expected to be a more useful PD marker of Compound (I) activity than HA itself.
The effect of Compound (I) on CSF biomarkers was assessed using mixed models for repeated measures (MMRM). These parameters were log transformed and analyzed using a model including treatment and timepoint, the treatment*timepoint interaction term, and log transformed baseline as fixed effects. An unstructured residual covariance matrix within subjects was considered as desirable, but an alternative covariance structure (autoregressive) was used due to a lack of fit. […]

[3] = SWD patients; N. Engl. J. Med., 2005, 353, 476-486; cited from earlier work
[4] = healthy volunteers, 0.5 hr post-dose
[5] = healthy volunteers, 1.0 hr post-dose
[6] = healthy volunteers, 1.5 hr post-dose
[7] = healthy volunteers, 2.0 hr post-dose
[8] = healthy volunteers, 3.0 hr post-dose
[9] = healthy volunteers, 4.0 hr post-dose
[10] = healthy volunteers, 6.0 hr post-dose
[11] = healthy volunteers, 8.0 hr post-dose
[12] = healthy volunteers, 12.0 hr post-dose
[13] = healthy volunteers, 16.0 hr post-dose

SMILES: Cn1nc(N2CCC(OC(=O)N3CCN(C4CCC4)CC3)CC2)ccc1=O [Compound (I), 1-(1-methyl-6-oxo-1,6-dihydropyridazin-3-yl)piperidin-4-yl 4-cyclobutylpiperazine-1-carboxylate]
- model adjusted geometric mean ratio to baseline of histamine in CSF ([1]; 0.5 hr post-dose): 1.27
- model adjusted geometric mean ratio to baseline of histamine in CSF ([1]; 1.0 hr post-dose): 1.09
- model adjusted geometric mean ratio to baseline of histamine in CSF ([1]; 1.5 hr post-dose): 0.95
- model adjusted geometric mean ratio to baseline of histamine in CSF ([1]; 2.0 hr post-dose): 1.02
- model adjusted geometric mean ratio to baseline of histamine in CSF ([1]; 3.0 hr post-dose): 1.01
- model adjusted geometric mean ratio to baseline of histamine in CSF ([1]; 4.0 hr post-dose): 0.73
- model adjusted geometric mean ratio to baseline of histamine in CSF ([1]; 6.0 hr post-dose): 0.63
- model adjusted geometric mean ratio to baseline of histamine in CSF ([1]; 8.0 hr post-dose): 0.83
- model adjusted geometric mean ratio to baseline of histamine in CSF ([1]; 12.0 hr post-dose): 0.84
- model adjusted geometric mean ratio to baseline of histamine in CSF ([1]; 16.0 hr post-dose): 0.92
- Comparison of treatment vs placebo, Estimate (geometric ratio), histamine in CSF ([1]; 0.5 hr post-dose): 1.16
- Comparison of treatment vs placebo, Estimate (geometric ratio), histamine in CSF ([1]; 1.0 hr post-dose): 0.96
- Comparison of treatment vs placebo, Estimate (geometric ratio), histamine in CSF ([1]; 1.5 hr post-dose): 0.97
- Comparison of treatment vs placebo, Estimate (geometric ratio), histamine in CSF ([1]; 2.0 hr post-dose): 0.99
- Comparison of treatment vs placebo, Estimate (geometric ratio), histamine in CSF ([1]; 3.0 hr post-dose): 1.15
- Comparison of treatment vs placebo, Estimate (geometric ratio), histamine in CSF ([1]; 4.0 hr post-dose): 0.79
- Comparison of treatment vs placebo, Estimate (geometric ratio), histamine in CSF ([1]; 6.0 hr post-dose): 0.64
- Comparison of treatment vs placebo, Estimate (geometric ratio), histamine in CSF ([1]; 8.0 hr post-dose): 1.14
- Comparison of treatment vs placebo, Estimate (geometric ratio), histamine in CSF ([1]; 12.0 hr post-dose): 1.14
- Comparison of treatment vs placebo, Estimate (geometric ratio), histamine in CSF ([1]; 16.0 hr post-dose): 0.82
- mean CSF HA levels, treatment vs placebo (in words) ([1]; free form, 100 mg, single dose, 16 hrs observation): No clear trend of a difference; also recorded: No treatment response was detected
- between group difference in CSF tMeHA (statistical significance) ([2]; at 1.5 hrs post dose and at all subsequent sampling points): statistically significant
- time for which mean CSF tMeHA level was increased compared to baseline ([2]; healthy volunteers, 100 mg single oral dose): about 10 hrs
- model adjusted geometric mean ratio to baseline of tele-methylhistamine in CSF [2, 4]: 1.01
- model adjusted geometric mean ratio to baseline of tele-methylhistamine in CSF [2, 5]: 1.17
- model adjusted geometric mean ratio to baseline of tele-methylhistamine in CSF [2, 6]: 1.30
- model adjusted geometric mean ratio to baseline of tele-methylhistamine in CSF [2, 7]: 1.73
- model adjusted geometric mean ratio to baseline of tele-methylhistamine in CSF [2, 8]: 1.64
- model adjusted geometric mean ratio to baseline of tele-methylhistamine in CSF [2, 9]: 1.21
- model adjusted geometric mean ratio to baseline of tele-methylhistamine in CSF [2, 10]: 1.59
- model adjusted geometric mean ratio to baseline of tele-methylhistamine in CSF [2, 11]: 1.20
- model adjusted geometric mean ratio to baseline of tele-methylhistamine in CSF [2, 12]: 0.79
- model adjusted geometric mean ratio to baseline of tele-methylhistamine in CSF [2, 13]: 1.04
- Comparison of treatment vs placebo, Estimate (geometric ratio), tele-methylhistamine in CSF [2, 4]: 1.02
- Comparison of treatment vs placebo, Estimate (geometric ratio), tele-methylhistamine in CSF [2, 5]: 1.10
- Comparison of treatment vs placebo, Estimate (geometric ratio), tele-methylhistamine in CSF [2, 6]: 1.39
- Comparison of treatment vs placebo, Estimate (geometric ratio), tele-methylhistamine in CSF [2, 7]: 1.77
- Comparison of treatment vs placebo, Estimate (geometric ratio), tele-methylhistamine in CSF [2, 8]: 1.88
- Comparison of treatment vs placebo, Estimate (geometric ratio), tele-methylhistamine in CSF [2, 9]: 1.63
- Comparison of treatment vs placebo, Estimate (geometric ratio), tele-methylhistamine in CSF [2, 10]: 1.85
- Comparison of treatment vs placebo, Estimate (geometric ratio), tele-methylhistamine in CSF [2, 11]: 2.14
- Comparison of treatment vs placebo, Estimate (geometric ratio), tele-methylhistamine in CSF [2, 12]: 2.45
- Comparison of treatment vs placebo, Estimate (geometric ratio), tele-methylhistamine in CSF [2, 13]: 1.57
- mean tMeHA level in CSF / ratio to baseline, treatment vs placebo (in words) ([2]; healthy volunteers, 100 mg single oral dose, entire observation period): higher; also recorded: robust increase

SMILES: NC(=O)C[S+]([O-])C(c1ccccc1)c1ccccc1 (stereo not drawn) [modafinil, 2-(benzhydrylsulfinyl)acetamide]
- mean sleep latency (MSLT) [3]: modest but statistically significant improvement
